Laboratory results reported in ChEMBL document CHEMBL3885881, “DrugMatrix”.

Organism: Rattus norvegicus
Test: DrugMatrix - Regimen: Daily Repeat
Assay type: toxicity, organism-based, Sprague-Dawley
Design: regimen Daily Repeat, gender Male, age 6-8 weeks
Details: in vivo, po, route oral GAVAGE, […]; for ABSOLUTE BASOPHIL / ABSOLUTE EOSINOPHIL / ABSOLUTE LYMPHOCYTE / ABSOLUTE MONOCYTE / ABSOLUTE SEGMENTED NEUTROPHIL / BASOPHIL / EOSINOPHIL / ERYTHROCYTE COUNT / HEMATOCRIT / HEMOGLOBIN / LEUKOCYTE COUNT / LYMPHOCYTE / MEAN CORPUSCULAR HEMOGLOBIN / MEAN CORPUSCULAR VOLUME / MONOCYTE / NEUTROPHIL / NUCLEATED RED BLOOD CELLS / PLATELET COUNT: tissue Blood; for ALANINE AMINOTRANSFERASE / ALBUMIN / ALKALINE PHOSPHATASE / ASPARTATE AMINOTRANSFERASE / BLOOD UREA NITROGEN / CARBON DIOXIDE / CHLORIDE / CHOLESTEROL / CREATINE PHOSPHOKINASE / CREATININE / GLUCOSE / LACTATE DEHYDROGENASE / LIPASE / PHOSPHORUS / POTASSIUM / SODIUM / TOTAL BILIRUBIN / TOTAL PROTEIN / URIC ACID: tissue Plasma
[1] = 70 mg/kg, 120 h, dose level M1, time 5 day
[2] = 700 mg/kg, 72 h, dose level High, time 3 day
[3] = 700 mg/kg, 120 h, dose level High, time 5 day

CCCCCCCCc1ccc(O)cc1 [4-OCTYLPHENOL]
ABSOLUTE BASOPHIL [1]: 0 CELLS/uL | ABSOLUTE EOSINOPHIL [1]: 194 CELLS/uL | ABSOLUTE LYMPHOCYTE [1]: 9540.33 CELLS/uL | ABSOLUTE MONOCYTE [1]: 80.33 CELLS/uL | ABSOLUTE SEGMENTED NEUTROPHIL [1]: 918.67 CELLS/uL | BASOPHIL [1]: 0% | EOSINOPHIL [1]: 1.67% | ERYTHROCYTE COUNT [1]: 5.98 x10E6/uL | HEMATOCRIT [1]: 36.37% | HEMOGLOBIN [1]: 13.77 G/DL | LEUKOCYTE COUNT [1]: 10.73 x10E3/uL | LYMPHOCYTE [1]: 88.67% | MEAN CORPUSCULAR HEMOGLOBIN [1]: 23.03 pg | MEAN CORPUSCULAR VOLUME [1]: 60.9 fL | MONOCYTE [1]: 0.67% | NEUTROPHIL [1]: 9% | NUCLEATED RED BLOOD CELLS [1]: 0.33 /100WBC | PLATELET COUNT [1]: 1062 x10E3/uL | ALANINE AMINOTRANSFERASE [1]: 72 u/L | ALBUMIN [1]: 4.1 G/DL | ALKALINE PHOSPHATASE [1]: 380.67 u/L | ASPARTATE AMINOTRANSFERASE [1]: 88.67 u/L | BLOOD UREA NITROGEN [1]: 16.67 mg/dL | CARBON DIOXIDE [1]: 27 mmol/L | CHLORIDE [1]: 102.33 MEQ/L | CHOLESTEROL [1]: 57.67 mg/dL | CREATINE PHOSPHOKINASE [1]: 355.33 u/L | CREATININE [1]: 0.18 mg/dL | GLUCOSE [1]: 157.33 mg/dL | LACTATE DEHYDROGENASE [1]: 260.67 u/L | LIPASE [1]: 11.67 u/L | PHOSPHORUS [1]: 11.13 mg/dL | POTASSIUM [1]: 5.91 MEQ/L | SODIUM [1]: 142.87 MEQ/L | TOTAL BILIRUBIN [1]: 0.17 mg/dL | TOTAL PROTEIN [1]: 5.87 G/DL | URIC ACID [1]: 1.6 mg/dL | ABSOLUTE BASOPHIL [2]: 0 CELLS/uL | ABSOLUTE EOSINOPHIL [2]: 0 CELLS/uL | ABSOLUTE LYMPHOCYTE [2]: 8011 CELLS/uL | ABSOLUTE MONOCYTE [2]: 200 CELLS/uL | ABSOLUTE SEGMENTED NEUTROPHIL [2]: 2522.33 CELLS/uL | BASOPHIL [2]: 0% | EOSINOPHIL [2]: 0% | ERYTHROCYTE COUNT [2]: 6.31 x10E6/uL | HEMATOCRIT [2]: 38.63% | HEMOGLOBIN [2]: 14.83 G/DL | LEUKOCYTE COUNT [2]: 10.73 x10E3/uL | LYMPHOCYTE [2]: 73.33% | MEAN CORPUSCULAR HEMOGLOBIN [2]: 23.5 pg | MEAN CORPUSCULAR VOLUME [2]: 61.27 fL | MONOCYTE [2]: 2% | NEUTROPHIL [2]: 24.67% | NUCLEATED RED BLOOD CELLS [2]: 0.67 /100WBC | PLATELET COUNT [2]: 1294.33 x10E3/uL | ALANINE AMINOTRANSFERASE [2]: 165.67 u/L | ALBUMIN [2]: 3.93 G/DL | ALKALINE PHOSPHATASE [2]: 493 u/L | ASPARTATE AMINOTRANSFERASE [2]: 140.33 u/L | BLOOD UREA NITROGEN [2]: 33.33 mg/dL | CARBON DIOXIDE [2]: 26.67 mmol/L | CHLORIDE [2]: 97.67 MEQ/L | CHOLESTEROL [2]: 169.67 mg/dL | CREATINE PHOSPHOKINASE [2]: 748 u/L | CREATININE [2]: 0.58 mg/dL | GLUCOSE [2]: 147.33 mg/dL | LACTATE DEHYDROGENASE [2]: 302.33 u/L | LIPASE [2]: 10.33 u/L | PHOSPHORUS [2]: 12.5 mg/dL | POTASSIUM [2]: 5.29 MEQ/L | SODIUM [2]: 140.03 MEQ/L | TOTAL BILIRUBIN [2]: 0.9 mg/dL | TOTAL PROTEIN [2]: 6.17 G/DL | URIC ACID [2]: 1.03 mg/dL | ABSOLUTE BASOPHIL [3]: 0 CELLS/uL | ABSOLUTE EOSINOPHIL [3]: 0 CELLS/uL | ABSOLUTE LYMPHOCYTE [3]: 7185 CELLS/uL | ABSOLUTE MONOCYTE [3]: 222.33 CELLS/uL | ABSOLUTE SEGMENTED NEUTROPHIL [3]: 759.33 CELLS/uL | BASOPHIL [3]: 0% | EOSINOPHIL [3]: 0% | ERYTHROCYTE COUNT [3]: 7.06 x10E6/uL | HEMATOCRIT [3]: 42.33% | HEMOGLOBIN [3]: 15.83 G/DL | LEUKOCYTE COUNT [3]: 8.17 x10E3/uL | LYMPHOCYTE [3]: 85% | MEAN CORPUSCULAR HEMOGLOBIN [3]: 22.53 pg | MEAN CORPUSCULAR VOLUME [3]: 60.13 fL | MONOCYTE [3]: 3.33% | NEUTROPHIL [3]: 11.67% | NUCLEATED RED BLOOD CELLS [3]: 0 /100WBC | PLATELET COUNT [3]: 1069.33 x10E3/uL | ALANINE AMINOTRANSFERASE [3]: 175.67 u/L | ALBUMIN [3]: 4.03 G/DL | ALKALINE PHOSPHATASE [3]: 554.67 u/L | ASPARTATE AMINOTRANSFERASE [3]: 104 u/L | BLOOD UREA NITROGEN [3]: 17 mg/dL | CARBON DIOXIDE [3]: 27.67 mmol/L | CHLORIDE [3]: 100 MEQ/L | CHOLESTEROL [3]: 150.33 mg/dL | CREATINE PHOSPHOKINASE [3]: 369 u/L | CREATININE [3]: 0.37 mg/dL | GLUCOSE [3]: 133 mg/dL | LACTATE DEHYDROGENASE [3]: 179.33 u/L | LIPASE [3]: 10.67 u/L | PHOSPHORUS [3]: 11.13 mg/dL | POTASSIUM [3]: 6.27 MEQ/L | SODIUM [3]: 143.2 MEQ/L | TOTAL BILIRUBIN [3]: 0.3 mg/dL | TOTAL PROTEIN [3]: 6.37 G/DL | URIC ACID [3]: 1.23 mg/dL
